According to US4310521A, “Aspirin-isopropylantipyrine” (Toho Pharmaceutical Co., Ltd., priority 1979, dated 1982):
“Also recorded” adds a separate entry of the source. Like-named read-outs stand apart in the source and are kept apart here.

What was measured:
[1] = system: mice (acetic acid writhings); test: Inhibition of acetic acid-induced writhing in mice (analgetic activity); format: in vivo; conditions: for No. of Writhings: 30 minutes before acetic acid i.p., control 32.2 ± 3.7; for Inhibition (%): writhing, based on the control group
Method: The number of writhings that occurred when mice were administered an acetic acid solution intraperitoneally were counted, and the rate of inhibition based on the control group was calculated. The test compounds were administered to the mice 30 minutes before the acetic acid solution was administered.

[2] = system: mouse tail (pain threshold, heat); test: Prolongation time of pain threshold of mouse tail, D'Amour-Smith Method (analgetic activity); format: in vivo; conditions: mice, s.c., 200 mg/kg AIA vs 200 mg/kg aspirin, FIG. 1
Method: Further, the prolongation time of pain threshold of mouse tail was determined in accordance with the D'Amour-Smith Method (J. Pharmacol. Exp. Ther., 72, 74 (1941)). After the subcutaneous administration of the test compounds to mice, the tails of mice were exposed to heat and the prolongation time of pain threshold was determined.

[3] = system: stomach, glandular portion; test: Gastric ulcerogenic activity, pylorus-ligated rats; format: in vivo; conditions: for Length of Stomach Lesion (cm): pylorus-ligated rats, oral, 100 mg/kg, 7 hours
Method: Immediately after ligation of the pylorus of fasted rats, the test compounds were administered orally. The stomachs were removed 7 hours later, and the lengths of the lesions in the glandular portion were measured.

[4] = system: stomach, glandular portion; test: Gastric ulcerogenic activity, adjuvant-administered rats; format: in vivo; conditions: oral, 200 mg/kg per day, 21 days, control 0.05 ± 0.048, *P < 0.05
Method: On the other hand, after administering an adjuvant, the rats were orally administered […] of the test compounds per day for 21 days. On the 21st day the stomachs were removed, and the lengths of the lesions in the glandular portion were measured.

carrageenin edema = test: Carrageenin edema of hind paw (anti-inflammatory activity); format: in vivo; conditions: rats, s.c., 50 and 100 mg/kg, FIG. 2, in words
Method: Rats were subcutaneously administered the test compounds, and 30 minutes later a carrageenin solution was administered subcutaneously to the foot pad of the rats. The volume of the hind paw was measured at prescribed intervals after the administration of the carrageenin, and the rate of increase in the volume of the paw was calculated and designated as the rate of swelling (%).

adjuvant arthritis = test: Adjuvant arthritis (anti-inflammatory activity); format: in vivo; conditions: rats, 200 mg/kg per day, 21 days, FIG. 3, in words
Method: On the other hand, an adjuvant was administered subcutaneously to only the foot pad of the left hind paw, and 200 mg/kg per day of the test compounds were administered daily for 21 days. The rate of increase in the volume of the both hind paws were measured daily and designated as the rate of swelling (%).

rats (E. coli pyrogen) = test: Antipyretic activity, E. coli suspension as pyrogen; format: in vivo; conditions: s.c., 100 mg/kg, 2 hours after pyrogen
Method: Rats received a sterilized E. coli suspension (1 platinum loop/2 ml saline, 0.5 ml/100 g, i.v.) as a pyrogen, and 2 hours later the test compounds were injected subcutaneously. The temperature was taken at hourly intervals before and after injection of the test compounds.

[5] = system: excised intestinal tract of rats; test: Inhibition of induced contraction of excised intestinal tract; conditions: 100 μg/ml
Acute toxicity (LD 50) = format: in vivo; conditions: mouse, in vivo, male ddy mice
Method: (§1) The acute toxicity of AIA was tested using male mice (ddy, body weight 18-25 g), and the dose at which 50% of the animal population were killed (LD 50) was determined.

male mice = test: Acute toxicity (LD 50); format: in vivo; conditions: male ddy mice, in words
Method: as §1

Solubility = format: physicochemical
[6] = Hygroscopicity and stability; format: physicochemical; conditions: in words, no test described; listed as formula (I)
[7] = background statement on aspirin; cited from earlier work
[8] = ip, intraperitoneal, read-out: LD 50 (g/kg), Intraperitoneal administration
[9] = sc, subcutaneous, read-out: LD 50 (g/kg), Subcutaneous administration
[10] = oral, read-out: LD 50 (g/kg), Oral administration

SMILES | No. of Writhings ([1]; 50 mg/kg) | Inhibition (%) ([1]; 50 mg/kg) | No. of Writhings ([1]; 100 mg/kg) | Inhibition (%) ([1]; 100 mg/kg) | Length of Stomach Lesion (cm) [3] [cm] | Length of Stomach Lesion (cm) [4] [cm] | LD50 (Acute toxicity (LD 50); [8]) [g/kg] | LD50 (Acute toxicity (LD 50); [9]) [g/kg] | LD50 (Acute toxicity (LD 50); [10]) [g/kg] | other results
CC(=O)Oc1ccccc1C(=O)NCc1c(C(C)C)c(=O)n(-c2ccccc2)n1C [AIA, N-3'a-propylphenazonyl-2-acetoxybenzamide] | 22.1 ± 3.3 | 31.4 | 18.3 ± 1.7 | 43.2 | 0.11 ± 0.09 | 0.04 ± 0.031 | 3.67 ± 0.07 | > 5 | > 5 | Analgetic activity (writhing) compared with aspirin ([1]; in words): analgetic activity comparable to that of aspirin; Analgetic activity (prolongation of pain threshold) compared with aspirin [2]: stronger analgetic activity than the group administered 200 mg/kg of aspirin; Injury to the stomach (Tables 2A and 2B) ([3]; rats, in words, Tables 2A and 2B): little or no injury is caused to the stomach; Inhibition of carrageenin edema formation (carrageenin edema): has the activity of inhibiting carrageenin edema formation; Inhibitory effect on adjuvant arthritis compared with aspirin (adjuvant arthritis): inhibitory effect on adjuvant arthritis comparable to that of aspirin; Antipyretic activity (rats (E. coli pyrogen)): demonstrated antipyretic activity; Inhibition of contraction induced by acetylcholine ([5]; acetylcholine): inhibit the contraction; Inhibition of contraction induced by barium chloride ([5]; barium chloride): inhibit the contraction; Inhibition of contraction induced by histamine ([5]; histamine): inhibit the contraction; Acute toxicity compared with aspirin (male mice): extremely low as compared with that of aspirin; Solubility in acetone (Solubility; acetone): dissolves readily; Solubility in chloroform (Solubility; chloroform): dissolves fairly well; Solubility in ethanol (Solubility; ethanol): dissolves readily; Solubility in methanol (Solubility; methanol): dissolves readily; Solubility in water (Solubility; water): practically insoluble; Hygroscopicity [6]: free of hygroscopicity; also recorded: not hygroscopic; Stability [6]: stable; also recorded: good stability
CC(=O)Oc1ccccc1C(=O)O [Aspirin, acetylsalicylic acid] | 17.2 ± 4.0 | 46.6 | 15.3 ± 2.4 | 52.5 | 4.13 ± 1.24 | 3.29 ± 1.37 | 0.76 ± 0.09 | 1.02 ± 0.11 | 11.6 ± 0.07 | Hygroscopicity [7]: hygroscopic
